Tests used:
E. coli MurC = E. coli MurC (Escherichia coli, UniProt P17952); assay: Malachite green inhibition assay, MurC; assay type: biochemical; conditions: Table S1, PKIS screening; for remaining activity at 100 µM: 0.25 h, read-out: RA [%] at 100 µM MurC
E. coli MurD = E. coli MurD (Escherichia coli, UniProt P14900); assay: biochemical; conditions: for remaining activity at 100 µM: 0.25 h, Table S1, PKIS screening, read-out: RA [%] at 100 µM MurD
How it was run: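 Reaction 15 min at 37 °C, then phosphate detected with Biomol green at 650 nm. Values are residual activity versus 5% DMSO carrier controls.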

E. coli MurF = E. coli MurF (Escherichia coli, UniProt P11880); assay: biochemical; conditions: Table S1, PKIS screening; for remaining activity at 100 µM: 0.25 h, read-out: RA [%] at 100 µM MurF
Sequence of E. coli MurF (P11880 whole entry): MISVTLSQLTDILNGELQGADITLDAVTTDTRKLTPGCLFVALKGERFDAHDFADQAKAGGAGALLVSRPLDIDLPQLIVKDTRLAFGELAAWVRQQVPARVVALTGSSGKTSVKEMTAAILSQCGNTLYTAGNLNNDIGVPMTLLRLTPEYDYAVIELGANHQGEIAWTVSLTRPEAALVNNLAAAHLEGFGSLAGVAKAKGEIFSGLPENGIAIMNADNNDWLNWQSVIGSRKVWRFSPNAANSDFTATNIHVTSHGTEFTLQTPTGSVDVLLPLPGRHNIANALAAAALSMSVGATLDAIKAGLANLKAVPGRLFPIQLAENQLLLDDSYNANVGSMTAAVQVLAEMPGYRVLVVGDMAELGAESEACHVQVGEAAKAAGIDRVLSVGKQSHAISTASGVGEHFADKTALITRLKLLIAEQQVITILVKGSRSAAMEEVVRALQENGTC

Sequence of E. coli MurD (P14900 whole entry): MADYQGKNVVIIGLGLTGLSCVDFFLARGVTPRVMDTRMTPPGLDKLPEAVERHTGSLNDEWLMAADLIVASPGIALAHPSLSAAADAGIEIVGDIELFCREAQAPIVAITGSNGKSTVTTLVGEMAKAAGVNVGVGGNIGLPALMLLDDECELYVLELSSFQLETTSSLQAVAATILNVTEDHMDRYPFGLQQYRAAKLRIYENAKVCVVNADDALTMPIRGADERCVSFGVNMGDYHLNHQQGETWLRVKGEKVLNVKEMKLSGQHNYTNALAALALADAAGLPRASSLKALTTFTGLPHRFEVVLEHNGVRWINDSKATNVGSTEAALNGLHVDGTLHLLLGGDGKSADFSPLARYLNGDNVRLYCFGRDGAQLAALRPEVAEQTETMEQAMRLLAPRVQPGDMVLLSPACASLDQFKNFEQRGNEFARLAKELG
Sequence of E. coli MurC (P17952 whole entry): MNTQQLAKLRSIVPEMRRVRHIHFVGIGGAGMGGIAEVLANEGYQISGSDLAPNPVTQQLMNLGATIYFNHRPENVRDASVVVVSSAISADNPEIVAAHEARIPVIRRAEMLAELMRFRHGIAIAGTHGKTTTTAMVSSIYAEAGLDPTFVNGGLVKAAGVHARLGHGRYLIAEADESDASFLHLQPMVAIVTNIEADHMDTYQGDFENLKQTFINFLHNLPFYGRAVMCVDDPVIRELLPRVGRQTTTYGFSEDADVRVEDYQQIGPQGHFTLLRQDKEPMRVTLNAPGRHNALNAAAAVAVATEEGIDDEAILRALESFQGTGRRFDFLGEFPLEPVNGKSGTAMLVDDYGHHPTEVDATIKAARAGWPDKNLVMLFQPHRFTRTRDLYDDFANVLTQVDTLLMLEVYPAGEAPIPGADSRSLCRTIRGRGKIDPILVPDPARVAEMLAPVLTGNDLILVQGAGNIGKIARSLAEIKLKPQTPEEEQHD

Compound	remaining activity at 100 µM (E. coli MurC) [%]	remaining activity at 100 µM (E. coli MurD) [%]	remaining activity at 100 µM (E. coli MurF) [%]	RA [%] at 100 µM MurC (E. coli MurC) [%]	RA [%] at 100 µM MurD (E. coli MurD)	RA [%] at 100 µM MurF (E. coli MurF) [%]
NC(=O)Cc1ccccc1Oc1nccc(-c2c(-c3ccc(F)cc3)ncn2C2CCNCC2)n1 [SB-264865]	66	82	98	–	–	–
O=C1NC(=O)C(N2CCc3ccccc32)=C1c1ccc(Cl)cc1 [SB-333612]	100	96	100	–	–	–
N#Cc1c(NC(=O)c2ccc(F)cc2)sc2c1CCCC2 [SB-347804]	87	78	100	–	–	–
O=C1NC(=O)C(c2ccc(Cl)cc2)=C1Nc1ccc(Cl)c(C(=O)O)c1 [SB-360741]	84	86	83	–	–	–
COc1ccc(C2=C(N3CCc4ccccc43)C(=O)NC2=O)cc1 [SB-361058]	100	100	97	–	–	–
O=C1NC(=O)C(c2ccccc2Cl)=C1Nc1cccc(O)c1 [SB-390527]	50	83	88	–	–	–
O=C1NC(=O)C(c2cccc(Cl)c2)=C1Nc1ccc(Cl)c(C(=O)O)c1 [SB-409513]	94	88	78	–	–	–
NC(=O)c1ccc(-c2nc(-c3ccc4c(c3)OCO4)c(-c3ccccn3)[nH]2)cc1 [SB-431542-A]	–	–	–	59	90	100
COc1ccc2cc(-c3c(-c4ccncc4)nc(-c4ccc([S+](C)[O-])cc4)n3C)ccc2c1 (stereo not drawn) [SB-437013]	70	58	70	–	–	–
CN(C)CCOc1ccc(-c2nc(-c3ccncc3)c(-c3ccc4c(c3)CC/C4=N\O)[nH]2)cc1 [SB-590885-AAD]	–	–	–	74	100	100
Cl.Oc1cccc(-c2nc(-c3ccccc3)[nH]c2-c2ccncc2)c1 [SB-610251-B]	–	–	–	74	13	96
COc1ccc2cc(-c3c(-c4ccncc4)nc(-c4ccc(S(C)(=O)=O)cc4C)n3C)ccc2c1 [SB-633825]	36	69	56	–	–	–
CN1CCC(C(=O)Nc2n[nH]c3nnc(-c4ccccc4)cc23)CC1.Cl [SB-678557-A]	–	–	–	74	76	95
CN(C)CCOc1ccc(-c2cc(-c3ccc4c(c3)CCC4=NO)c(-c3ccncc3)o2)cc1.Cl [SB-682330-A]	–	–	–	31	51	57
O=C(Nc1n[nH]c2nc(-c3ccc(O)cc3)c(Br)cc12)C1CC1 [SB-725317]	84	96	89	–	–	–
CN1CCC(C(=O)Nc2n[nH]c3nc(-c4ccc(O)cc4)c(Br)cc23)CC1 [SB-732881]	71	84	90	–	–	–
O=C(Nc1n[nH]c2cc(-c3ccccc3)ccc12)C1CC1 [SB-732941]	80	79	86	–	–	–
Nc1nonc1-c1nc2cnccc2n1C1CCCCC1 [SB-734117]	100	79	93	–	–	–

Compound	remaining activity at 100 µM (E. coli MurC) [%]	remaining activity at 100 µM (E. coli MurD) [%]	remaining activity at 100 µM (E. coli MurF) [%]	RA [%] at 100 µM MurC (E. coli MurC) [%]	RA [%] at 100 µM MurD (E. coli MurD)	RA [%] at 100 µM MurF (E. coli MurF) [%]
O=C(Nc1n[nH]c2cc(-c3cc(F)ccc3F)ccc12)C1CC1 [SB-735465]	59	80	82	–	–	–
O=C(Nc1n[nH]c2cc(-c3ccc(F)cc3)ccc12)C1CC1 [SB-735467]	51	75	103	–	–	–
Nc1nonc1-c1nc2cnccc2n1C1CC1 [SB-736302]	92	100	77	–	–	–
CCOc1nccc2c1nc(-c1nonc1N)n2CC [SB-737198]	73	100	100	–	–	–
NS(=O)(=O)c1ccc(-c2ccc3c(NC(=O)C4CC4)n[nH]c3c2)cc1 [SB-738482]	75	83	83	–	–	–
CCn1c(-c2nonc2N)nc2ccncc21 [SB-738561]	78	58	100	–	–	–
O=C(Nc1n[nH]c2nc(-c3ccco3)c(Br)cc12)C1CC1 [SB-739452]	78	84	87	–	–	–
NS(=O)(=O)c1cccc(-c2ccc3c(NC(=O)C4CC4)n[nH]c3c2)c1 [SB-741905]	72	98	88	–	–	–
CS(=O)(=O)Nc1cccc(-c2ccc3c(NC(=O)C4CC4)n[nH]c3c2)c1 [SB-742864]	64	88	99	–	–	–
CS(=O)(=O)Nc1ccc(-c2ccc3c(NC(=O)C4CC4)n[nH]c3c2)cc1 [SB-742865]	63	80	92	–	–	–
O=C(Nc1n[nH]c2nc(-c3ccco3)ccc12)C1CC1 [SB-743899]	84	89	91	–	–	–
CCc1nccc2c1nc(-c1nonc1N)n2CC [SB-751148]	75	96	88	–	–	–
CCn1c(-c2nonc2N)nc2cncc(C(=O)N3CC[C@H](N)C3)c21 [SB-772077-B]	–	–	–	77	90	80
Fc1ccc(-c2nc3n(c2-c2ccncc2)CCS3)cc1 [SKF-86002-A2]	–	–	–	75	91	97
Fc1ccc(-c2c(-c3ccncc3)nc3n2CCS3)cc1 [SKF-86055]	98	91	89	–	–	–
SB-675259-M	–	–	–	72	80	100
SB-739245-AC	–	–	–	61	99%	95

Reference: paper PMC6522912, “Evaluation of the published kinase inhibitor set to identify multiple inhibitors of bacterial ATP-dependent mur ligases” (Journal of Enzyme Inhibition and Medicinal Chemistry, 2019)
